From patent US20030211942A1, “Aryl sulfonyl amino carbonyl triazole based selective herbicides” (priority 2000, published 2003)
Where “and” joins values, the source holds several entries; their conditions need not be identical. Identical values can stand only once.

What was measured:
Assay in all cases: Post-emergence/greenhouse herbicidal test
Assay type in all cases: in vivo
[1] = test system: Abutilon theophrasti; details: post-emergence, about 3 weeks
Description: (§1) Procarbazone- and flucarbazone-sodium were used as 70 WG formulation. Fenoxaprop-P-ethyl was used in a mixture with mefenpyr-diethyl (75 g of mefenpyr-diethyl/l) as Ralon® Super 69 EW. Cinidon-ethyl and florasulam and iodosufuron in a mixture with mefenpyr-diethyl were used in the form of the finished formulations Lotus® 200 EC, Primus® 50 SC and Hussar® 5 WG (15% mefenpyr-diethyl), respectively. Amicarbazone was used as 70 WG formulation.
(§2) In pre- and post-emergence experiments, the spray liquor is usually admixed with a surfactant (Renex 36), at a concentration of 0.1%.
(§3) Test plants are grown under controlled conditions (temperature and light).
(§4) Following the spray application, the plant containers are kept in a greenhouse under constant light and temperature conditions.
(§5) After about 3 weeks, the degree of damage to the plants is rated in % damage in comparison to the development of the untreated control.
(§6) 0% =no damage (like untreated control)
(§7) 100% =total destruction/damage

[2] = test system: Alopecurus myosuroides; details: post-emergence, about 3 weeks
Description: as §1, §2, §3, §4, §5, §6, §7

[3] = test system: Amaranthus retroflexus; details: post-emergence, about 3 weeks
Description: as §1, §2, §3, §4, §5, §6, §7

[4] = test system: Avena fatua
Description: as §1, §2, §3, §4, §5, §6, §7

[5] = test system: Bromus secalinus; details: post-emergence, about 3 weeks
Description: as §1, §2, §3, §4, §5, §6, §7

[6] = test system: Cassia tora
Description: as §1, §2, §3, §4, §5, §6, §7

[7] = test system: Chenopodium album; details: post-emergence, about 3 weeks
Description: as §1, §2, §3, §4, §5, §6, §7

[8] = test system: Datura strumarium; details: post-emergence, about 3 weeks
Description: as §1, §2, §3, §4, §5, §6, §7

[9] = test system: Digitaria sanguinalis; details: post-emergence, about 3 weeks
Description: as §1, §2, §3, §4, §5, §6, §7

[10] = test system: Echinochloa crus-galli
Description: as §1, §2, §3, §4, §5, §6, §7

[11] = test system: Eriochloa villosa; details: 60 g of ai/ha, post-emergence, about 3 weeks
Description: as §1, §2, §3, §4, §5, §6, §7

[12] = test system: Galium aparine; details: post-emergence, about 3 weeks
Description: as §1, §2, §3, §4, §5, §6, §7

[13] = test system: Lolium perenne; details: post-emergence, about 3 weeks
Description: as §1, §2, §3, §4, §5, §6, §7

[14] = test system: Matricaria inodora
Description: as §1, §2, §3, §4, §5, §6, §7

[15] = test system: Polygonum convolvolus; details: post-emergence, about 3 weeks
Description: as §1, §2, §3, §4, §5, §6, §7

[16] = test system: Stellaria media; details: post-emergence, about 3 weeks
Description: as §1, §2, §3, §4, §5, §6, §7

[17] = test system: Veronica persicaria; details: 60 g of ai/ha, post-emergence, about 3 weeks
Description: as §1, §2, §3, §4, §5, §6, §7

[18] = test system: Viola arvensis; details: post-emergence, about 3 weeks
Description: as §1, §2, §3, §4, §5, §6, §7

[19] = test system: Xanthium strumarium; details: post-emergence, about 3 weeks
Description: as §1, §2, §3, §4, §5, §6, §7

[20] = 15 g of ai/ha, post-emergence, about 3 weeks
[21] = 30 g of ai/ha, post-emergence, about 3 weeks
[22] = 60 g of ai/ha, post-emergence, about 3 weeks

COc1nn(C(=O)NS(=O)(=O)c2ccccc2OC(F)(F)F)c(=O)n1C [Flucarbazone-sodium, 2-(2-trifluoromethoxy-phenylsulphonylaminocarbonyl)-4-methyl-5-methoxy-2,4-dihydro-3H-1,2,4-triazol-3-one]
Abutilon theophrasti observed ([1]; 15 g of ai/ha): 0%
Abutilon theophrasti observed ([1]; 30 g of ai/ha): 0%
Abutilon theophrasti observed ([1]; 60 g of ai/ha): 0%
Alopecurus myosuroides observed ([2]; 15 g of ai/ha): 70%
Alopecurus myosuroides observed ([2]; 30 g of ai/ha): 70%
Alopecurus myosuroides observed ([2]; 60 g of ai/ha): 70%
Amaranthus retroflexus observed ([3]; 15 g of ai/ha): 90%
Amaranthus retroflexus observed ([3]; 30 g of ai/ha): 90%
Amaranthus retroflexus observed ([3]; 60 g of ai/ha): 90%
Avena fatua observed [4, 20]: 80%
Avena fatua observed [4, 21]: 90%
Avena fatua observed [4, 22]: 90%
Avena fatua observed ([4]; Table B-62, application rate 15 g ai/ha): 80
Avena fatua observed ([4]; application rate 15 g ai/ha): 70
Avena fatua observed ([4]; application rate 30 g ai/ha): 70
Avena fatua observed ([4]; application rate 60 g ai/ha): 70
Bromus secalinus observed ([5]; 15 g of ai/ha): 70%
Bromus secalinus observed ([5]; 30 g of ai/ha): 70% and 90%
Bromus secalinus observed ([5]; 60 g of ai/ha): 80% and 90%
Cassia tora observed [6, 20]: 50%
Cassia tora observed [6, 21]: 50%
Cassia tora observed [6, 22]: 50%
Cassia tora observed ([6]; application rate 15 g ai/ha): 0
Chenopodium album observed ([7]; 15 g of ai/ha): 50%
Chenopodium album observed ([7]; 30 g of ai/ha): 50%
Chenopodium album observed ([7]; 60 g of ai/ha): 70%
Datura strumarium observed ([8]; 15 g of ai/ha): 70%
Datura strumarium observed ([8]; 60 g of ai/ha): 80%
Digitaria sanguinalis observed ([9]; 30 g of ai/ha): 20%
Digitaria sanguinalis observed ([9]; 60 g of ai/ha): 20%
Echinochloa crus-galli observed [10, 20]: 50%
Echinochloa crus-galli observed [10, 22]: 90%
Echinochloa crus-galli observed ([10]; application rate 15 g ai/ha): 60
Echinochloa crus-galli observed ([10]; application rate 30 g ai/ha): 70
Echinochloa crus-galli observed ([10]; application rate 60 g ai/ha): 90
Eriochloa villosa observed [11]: 70%
Galium aparine observed ([12]; 15 g of ai/ha): 0%
Galium aparine observed ([12]; 30 g of ai/ha): 0%
Galium aparine observed ([12]; 60 g of ai/ha): 0%
Lolium perenne observed ([13]; 15 g of ai/ha): 80%
Lolium perenne observed ([13]; 30 g of ai/ha): 90%
Lolium perenne observed ([13]; 60 g of ai/ha): 90%
Matricaria inodora observed [14, 22]: 20%
Matricaria inodora observed ([14]; application rate 15 g ai/ha): 20
Matricaria inodora observed ([14]; application rate 30 g ai/ha): 60
Matricaria inodora observed ([14]; application rate 60 g ai/ha): 60
Polygonum convolvolus observed ([15]; 15 g of ai/ha): 60%
Polygonum convolvolus observed ([15]; 30 g of ai/ha): 70%
Polygonum convolvolus observed ([15]; 60 g of ai/ha): 70%
Stellaria media observed ([16]; 15 g of ai/ha): 0%
Stellaria media observed ([16]; 30 g of ai/ha): 60%
Stellaria media observed ([16]; 60 g of ai/ha): 95%
Veronica persicaria observed [17]: 0%
Viola arvensis observed ([18]; 15 g of ai/ha): 60% and 50% and 80%
Viola arvensis observed ([18]; 30 g of ai/ha): 50%
Viola arvensis observed ([18]; 60 g of ai/ha): 50%
Xanthium strumarium observed ([19]; 15 g of ai/ha): 20%
Xanthium strumarium observed ([19]; 30 g of ai/ha): 40%
Xanthium strumarium observed ([19]; 60 g of ai/ha): 60%
